Assay results from article PMC9772100 (ACS chemical biology, 2022).
Where two headings read alike, the source gives them in different places.

T1: PfHGXPRT (Plasmodium falciparum, UniProt P20035)
T1 sequence (P20035 1-231): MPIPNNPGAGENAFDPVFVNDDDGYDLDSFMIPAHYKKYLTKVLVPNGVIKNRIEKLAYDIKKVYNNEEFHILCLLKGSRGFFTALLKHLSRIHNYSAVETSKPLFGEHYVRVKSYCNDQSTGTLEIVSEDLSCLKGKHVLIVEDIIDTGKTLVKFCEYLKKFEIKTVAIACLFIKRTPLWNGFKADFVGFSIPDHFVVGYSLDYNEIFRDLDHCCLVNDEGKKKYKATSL

B1: PfHGXPRT (Plasmodium falciparum FCR-3/Gambia) (protein)
chain: T1 sequence (P20035 1-231)

Key:
PfHGXPRT = target: T1, PfHGXPRT; test: PfHGXPRT steady-state kinetics; type: biochemical
[1] = substrate: O=c1[nH]cnc2nc[nH]c12; test: purified protein, by the assay type; conditions: other: unactivated enzyme; pH 7.4

| Molecule | Km (PfHGXPRT; read-out: Km, activated PfHGXPRT, substrate-activated enzyme) [µM] | Km (PfHGXPRT; read-out: Km, unactivated PfHGXPRT, unactivated enzyme) [µM] | Km [1] [µM] |
| --- | --- | --- | --- |
| O=P(O)(O)OC[C@H]1O[C@H](OP(=O)(O)OP(=O)(O)O)[C@H](O)[C@@H]1O [PRPP, 5-phospho-α-D-ribosyl 1-pyrophosphate] | 185 ± 14 | 55 ± 11 | – |
| B1 | – | – | 2.7 ± 0.3 |
